Test results as given in patent US10806739B2, “Use of n-desmethylclobazam in the treatment of chronic pain disorders and related methods” (LES HOPITAUX UNIV[…] GENEVE, priority 2015, dated 2020).

Columns and labels:
[1] = after a single oral dose of 20 or 30 mg of CBZ; cited from earlier work
α3β3γ2 GABAAR = molecular target: T1, α3β3γ2 GABAAR (Rattus norvegicus, UniProt P18508+P20236); test: Whole-cell patch-clamp, potentiation of GABA-evoked currents in transfected HEK293 cells; type: cell-based; settings: α3GABAARs; GABA at EC10
T1 construct: expressed in transfected cells; host or cells: HEK293 cells (ATCC)
T1 sequence (P20236 29-493): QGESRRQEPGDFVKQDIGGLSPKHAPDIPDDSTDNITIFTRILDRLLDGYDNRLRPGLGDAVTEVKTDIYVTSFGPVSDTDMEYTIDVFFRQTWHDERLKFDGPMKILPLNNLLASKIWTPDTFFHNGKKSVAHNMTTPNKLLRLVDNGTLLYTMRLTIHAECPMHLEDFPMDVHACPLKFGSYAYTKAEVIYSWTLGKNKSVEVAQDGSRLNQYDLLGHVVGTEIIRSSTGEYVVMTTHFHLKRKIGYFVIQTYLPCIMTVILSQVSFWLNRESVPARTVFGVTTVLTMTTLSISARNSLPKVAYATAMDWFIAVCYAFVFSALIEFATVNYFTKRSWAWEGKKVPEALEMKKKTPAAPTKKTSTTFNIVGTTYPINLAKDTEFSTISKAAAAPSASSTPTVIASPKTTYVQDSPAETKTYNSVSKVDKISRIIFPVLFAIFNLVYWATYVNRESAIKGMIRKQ
T1 sequence (P63079 26-473 partner): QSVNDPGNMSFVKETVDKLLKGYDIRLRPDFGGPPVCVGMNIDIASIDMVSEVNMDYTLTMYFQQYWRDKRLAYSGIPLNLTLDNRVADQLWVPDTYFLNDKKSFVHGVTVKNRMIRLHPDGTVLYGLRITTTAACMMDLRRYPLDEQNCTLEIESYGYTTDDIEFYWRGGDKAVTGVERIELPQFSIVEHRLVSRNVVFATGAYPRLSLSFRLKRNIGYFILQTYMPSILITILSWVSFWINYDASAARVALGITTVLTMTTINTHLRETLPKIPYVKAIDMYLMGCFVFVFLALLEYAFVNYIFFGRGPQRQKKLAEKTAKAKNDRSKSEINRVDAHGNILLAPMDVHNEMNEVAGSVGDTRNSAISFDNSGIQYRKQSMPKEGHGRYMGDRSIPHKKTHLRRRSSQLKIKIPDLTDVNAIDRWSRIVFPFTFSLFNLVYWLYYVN
T1 sequence (P18508 39-466): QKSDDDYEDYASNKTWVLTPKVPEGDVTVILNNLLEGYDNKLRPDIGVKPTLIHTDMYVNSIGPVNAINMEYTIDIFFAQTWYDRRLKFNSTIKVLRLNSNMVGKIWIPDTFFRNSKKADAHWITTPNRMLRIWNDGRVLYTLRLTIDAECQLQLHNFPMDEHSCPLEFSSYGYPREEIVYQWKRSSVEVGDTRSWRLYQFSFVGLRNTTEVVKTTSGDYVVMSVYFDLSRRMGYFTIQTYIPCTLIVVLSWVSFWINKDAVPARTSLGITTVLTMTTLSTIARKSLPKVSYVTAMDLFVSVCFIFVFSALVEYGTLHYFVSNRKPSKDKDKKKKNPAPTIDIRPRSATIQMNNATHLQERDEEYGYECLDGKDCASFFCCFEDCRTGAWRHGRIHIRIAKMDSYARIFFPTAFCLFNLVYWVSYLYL
Source text: (§1) To ensure expression of the γ2 subunit (required for modulation of GABAAR currents by BDZs) in all recorded cells, cells were transfected with a plasmid expressing the γ2 subunit plus eGFP from an IRES (internal ribosome entry site) and only eGFP-positive cells were selected for recordings. The transfection mixture contained (in μg): […], 3 γ2/eGFP (used as a marker of successful transfection). Whole-cell patch-clamp recordings were made 18-36 hrs after transfection at room temperature (20-24° C.) and at a holding membrane potential of −60 mV. Recording electrodes were filled with solution containing (in mM): 120 CsCl, 10 EGTA (aminopolycarboxylic acid), 10 HEPES (4-(2-hydroxyethyl)-1-piperazineethanesulfonic acid, pH 7.40), 4 MgCl2, 0.5 GTP (guanosine-5′-triphosphate) and 2 ATP (adenosine triphosphate). The external solution contained (in mM): 150 NaCl, 10 KCl, 2.0 CaCl2, 1.0 MgCl2, 10 HEPES (pH 7.40), and 10 glucose. GABA was applied to the recorded cell using a manually controlled pulse (6-10 s) of a low sub-saturating GABA concentration (EC10). […] EC50 values and Hill coefficients (nH) were obtained from fits of normalized concentration-response curves to the equation: IGABA=Imax[GABA]nH/([GABA]nH+[EC50]nH). Imax was determined as the average maximal current elicited by saturating concentration of GABA (30 μM−3 mM, depending on the subunit composition).

[2] = test system: α2 versus α1 receptor complexes; settings: cited from earlier work
healthy volunteers = settings: standard therapeutic doses; cited from earlier work
[3] = test system: T2, α1β2γ2, α2β3γ2, α3β3γ2 and α5β2γ2 GABAARs; test: Whole-cell patch-clamp, results stated across several recombinant GABAAR subtypes; type: cell-based, rat; settings: α1-, α2- and α5-GABAARs together; GABA at EC10
T2 construct: rows headed: Potentiation of the other three α1-, α2-, and α5-GABAARs subtypes; other: α1-, α2- and α5-GABAARs together; GABA at EC1; fused on or other part: eGFP co-expressed from an IRES on the γ2 plasmid (not fused)
Source text: as §1

[4] = test system: α1β2γ2, α2β3γ2, α3β3γ2 and α5β2γ2 GABAARs; test: as above; type: cell-based, rat; settings: for Preference α2- versus α1GABAARs at low concentrations: low concentrations (<EC50); for Efficacy of potentiation of α2- versus α1GABAARs at saturating concentrations: saturating concentrations: 1 μM DZP, 20 μM CBZ, 20 μM NDMC; for Relative potentiation of subtypes at sub-saturating concentrations: sub-saturating concentrations (<EC50)
Source text: as §1

[5] = test system: T3, α1β2γ2, α2β3γ2, α3β3γ2 and α5β2γ2 GABAARs; test: as above; type: cell-based, rat; settings: up to 3 μM for DZP, up to 20 μM for CBZ and NDMC
T3 construct: EC50 of potentiation of GABAAR currents; other: range over all four receptor subtypes; GABA at EC10; fused on or other part: eGFP co-expressed from an IRES on the γ2 plasmid (not fused)
Source text: as §1

α2GABAAR = α2GABAAR (Mus musculus, UniProt P22723+P26048); settings: full agonist; cited from earlier work
Chain of α2GABAAR (P26048 29-451): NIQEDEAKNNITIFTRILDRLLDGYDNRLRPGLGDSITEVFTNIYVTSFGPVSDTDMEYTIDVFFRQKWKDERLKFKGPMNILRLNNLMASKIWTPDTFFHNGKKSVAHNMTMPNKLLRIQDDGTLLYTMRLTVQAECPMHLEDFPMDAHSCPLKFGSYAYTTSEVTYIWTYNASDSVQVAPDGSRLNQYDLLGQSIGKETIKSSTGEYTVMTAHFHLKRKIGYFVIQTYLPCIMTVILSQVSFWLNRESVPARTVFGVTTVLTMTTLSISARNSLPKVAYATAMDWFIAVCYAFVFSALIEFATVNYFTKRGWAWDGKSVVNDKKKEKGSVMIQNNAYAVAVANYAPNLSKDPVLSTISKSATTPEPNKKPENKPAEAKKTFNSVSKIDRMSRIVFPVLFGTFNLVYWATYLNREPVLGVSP
Chain of α2GABAAR (P22723 39-474): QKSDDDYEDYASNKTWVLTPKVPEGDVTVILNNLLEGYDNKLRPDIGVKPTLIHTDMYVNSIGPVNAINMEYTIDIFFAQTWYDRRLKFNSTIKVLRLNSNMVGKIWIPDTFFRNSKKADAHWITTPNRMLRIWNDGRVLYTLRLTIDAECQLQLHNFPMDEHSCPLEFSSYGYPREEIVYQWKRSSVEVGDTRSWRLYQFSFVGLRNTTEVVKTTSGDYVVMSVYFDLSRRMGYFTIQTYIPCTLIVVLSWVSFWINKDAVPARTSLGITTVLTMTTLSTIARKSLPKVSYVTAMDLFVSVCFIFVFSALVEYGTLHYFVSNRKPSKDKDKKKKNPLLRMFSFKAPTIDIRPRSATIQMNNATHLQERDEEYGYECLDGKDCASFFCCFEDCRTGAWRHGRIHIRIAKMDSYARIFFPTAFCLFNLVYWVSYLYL

[6] = test system: α2GABAAR-mediated antihyperalgesia; settings: GABAAR α1 (H→R) point-mutated mice
Description: To avoid confounding effects of anxiolysis in sedation experiments, and of sedation on antihyperalgesia experiments triple point-mutated mice were used. Sedation was assessed in triple (H→R) point-mutated mice, in which all GABAARs except α1 had been rendered BDZ-insensitive. Conversely, antihyperalgesia was studied in GABAAR α1 (H→R) point-mutated mice to rule out confounding sedation.

[7] = test system: α1GABAAR-mediated sedation; test: Dose dependence of sedation in triple (H→R) point-mutated mice; settings: all GABAARs except α1 BDZ-insensitive
Description: Mice (C57BL/6J or 129X1/SvJ) were tested during the light phase of the day-night cycle. […] Motor activity expressed as the total number of photocell interruptions was recorded for 6 h.

α2β3γ2 GABAAR = molecular target: T4, α2β3γ2 GABAAR (Rattus norvegicus, UniProt P18508+P23576); test: Whole-cell patch-clamp, potentiation of GABA-evoked currents in transfected HEK293 cells; type: cell-based
T4 construct: expressed in transfected cells; host or cells: HEK293 cells (ATCC)
T4 sequence (P23576 29-451): as the sequence (P26048 29-451) above, with L88S, A174P counted along it
T4 sequence (P63079 26-473 partner): as the sequence (P63079 26-473 partner) above
T4 sequence (P18508 39-466): as the sequence (P18508 39-466) above
Source text: as §1

α1β2γ2 GABAAR = molecular target: T5, α1β2γ2 GABAAR (Rattus norvegicus, UniProt P18508+P62813); test: as above; type: cell-based; settings: α1GABAARs; GABA at EC10
T5 construct: expressed in transfected cells; host or cells: HEK293 cells (ATCC)
T5 sequence (P62813 28-455): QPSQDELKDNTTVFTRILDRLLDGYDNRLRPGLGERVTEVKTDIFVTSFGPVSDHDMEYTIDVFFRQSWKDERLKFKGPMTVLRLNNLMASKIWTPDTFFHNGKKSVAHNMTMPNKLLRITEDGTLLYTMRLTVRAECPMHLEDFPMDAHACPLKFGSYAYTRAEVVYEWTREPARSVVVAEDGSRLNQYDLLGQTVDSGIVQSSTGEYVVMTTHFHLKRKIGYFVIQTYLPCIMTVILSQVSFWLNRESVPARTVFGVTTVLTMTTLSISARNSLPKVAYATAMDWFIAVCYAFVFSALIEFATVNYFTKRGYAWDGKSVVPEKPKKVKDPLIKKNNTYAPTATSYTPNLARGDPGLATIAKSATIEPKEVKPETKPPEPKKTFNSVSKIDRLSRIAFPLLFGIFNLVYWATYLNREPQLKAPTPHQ
T5 sequence (P63138 25-474 partner limits assumed): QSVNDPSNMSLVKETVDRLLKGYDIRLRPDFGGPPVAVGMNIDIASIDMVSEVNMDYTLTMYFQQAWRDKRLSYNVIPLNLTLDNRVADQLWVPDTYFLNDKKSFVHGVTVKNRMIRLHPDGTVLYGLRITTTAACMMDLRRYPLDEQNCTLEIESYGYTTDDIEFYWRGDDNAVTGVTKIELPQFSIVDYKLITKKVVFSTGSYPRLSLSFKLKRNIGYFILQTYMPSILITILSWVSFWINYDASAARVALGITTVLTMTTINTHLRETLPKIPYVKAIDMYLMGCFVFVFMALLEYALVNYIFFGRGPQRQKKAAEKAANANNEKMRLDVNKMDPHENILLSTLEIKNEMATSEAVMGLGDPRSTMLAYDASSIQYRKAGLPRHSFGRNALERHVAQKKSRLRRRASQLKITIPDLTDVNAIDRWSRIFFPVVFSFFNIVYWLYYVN
T5 sequence (P18508 39-466): as the sequence (P18508 39-466) above
Source text: as §1

α5β2γ2 GABAAR = molecular target: T6, α5β2γ2 GABAAR (Rattus norvegicus, UniProt P18508+P19969); test: as above; type: cell-based; settings: α5GABAARs; GABA at EC10
T6 construct: expressed in transfected cells; host or cells: HEK293 cells (ATCC)
T6 sequence (P19969 32-464 limits assumed): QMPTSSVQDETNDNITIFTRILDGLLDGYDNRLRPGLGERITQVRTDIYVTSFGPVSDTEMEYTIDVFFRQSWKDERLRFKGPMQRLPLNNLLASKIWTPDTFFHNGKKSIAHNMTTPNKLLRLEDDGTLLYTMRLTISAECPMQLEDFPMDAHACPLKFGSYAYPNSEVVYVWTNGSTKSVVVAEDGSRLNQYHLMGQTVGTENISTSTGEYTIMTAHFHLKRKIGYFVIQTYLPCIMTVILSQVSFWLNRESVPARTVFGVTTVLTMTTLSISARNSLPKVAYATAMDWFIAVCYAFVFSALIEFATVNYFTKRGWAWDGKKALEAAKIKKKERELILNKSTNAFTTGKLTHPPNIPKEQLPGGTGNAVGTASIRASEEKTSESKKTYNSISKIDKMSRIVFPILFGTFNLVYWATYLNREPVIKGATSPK
T6 sequence (P63138 25-474 partner limits assumed): as the sequence (P63138 25-474 partner limits assumed) above
T6 sequence (P18508 39-466): as the sequence (P18508 39-466) above
Source text: as §1

[8] = test system: CCI mice, paw withdrawal latency; test: Heat hyperalgesia (Plantar Test) in chronic constriction injury (CCI) neuropathic pain model; type: in vivo
Description: (§2) Experiments were performed in wild-type mice (genetic background C57BL/6J or 129X1/SvJ), and in homozygous triple and quadruple (H→R) GABAAR point-mutated mice of the 129X1/SvJ background (Ralvenius et al., 2015, supra). Quadruple point-mutated mice were generated by cross breeding of single point-mutated mice (Crestani et al., 2002, PNAS, 99(13): 8980-8985; Low et al., 2000, Science 290(5489): 131-134; Rudolph et al., 1999, Nature, 401(6755): 796-800). Quadruple point mutated mice carry the H→R mutation in the α1, α2, α3, and α5 subunits that is in all α subunits that can form a high affinity BDZ binding site.
(§3) A chronic constriction injury (CCI) model was used. Unilateral constriction injury of the left sciatic nerve just proximal to the trifurcation was performed. Anesthesia was induced and maintained by 2% isoflurane, combined with oxygen (30%). The sciatic nerve was exposed at the mid-thigh level proximal to the sciatic trifurcation by blunt dissection through the biceps femoris muscle. […] Heat hyperalgesia and mechanical sensitization were assessed 7 days after surgery.
Paw withdrawal latencies upon exposure to a defined radiant heat stimulus were measured using a commercially available apparatus (Plantar Test, Ugo Basile, Comerio, Italy). […]

[9] = NDMC pharmacokinetics after oral administration, dried blood spot sampling, LCMS-MS; type: in vivo, C57BL/6 mice
Description: Pharmacokinetic parameters of NDMC following oral administration in C57BL/6 mice were determined and allowed to test whether antihyperalgesia after NDMC administration was mediated by NDMC itself and not by a down-stream metabolite.
Pharmacokinetic properties of NDMC were evaluated using the dried blood spot sampling method. This technique allows collecting multiple bleeds from the same animal over a large time window (Deglon et al., 2011, Pharm. Biomed. Analysis, 54(2): 359-367). Four μl of whole blood were collected and spotted onto a filter paper card from Whatman (Dassel, Germany) at different time points between 0 and 48 h after NDMC administration. NDMC concentration measurements were performed using a fully validated LCMS-MS (liquid chromatography—mass spectrometry or HPLC) method. Pharmacokinetic parameters were estimated by a noncompartmental method using WinNonlin® version 5.2 (Pharsight, Mountainview, Calif., USA).
Blood NDMC concentrations were measured with HPLC following single oral doses of 3, 10 and 30 mg kg^−1 in three mice per group (FIG. 5). Maximal blood levels of NDMC were reached within 2-3 hrs.

mice, motor activity = test: Motor activity (photocell interruptions); type: in vivo
[10] = test system: CCI mice, paw withdrawal threshold; test: Mechanical hyperalgesia (dynamic von Frey filaments) in CCI neuropathic pain model; type: in vivo
Description: as §2
as §3, with “muscle. […] of nerve were freed of adhering tissue and three chromic gut ligatures (4/0) (Ethicon) were loosely put around the nerve with about 1 mm spacing.” for “muscle.”
Mechanical sensitivity was assessed with dynamic von Frey filaments (IITC, Woodland Hills, Calif.). […]

[11] = quadruple point-mutated mice, 30 mg kg^−1
[12] = single oral doses of 3, 10 and 30 mg kg^−1

Compound	Potentiation of currents (% increase upon application) (α3β3γ2 GABAAR)	Binding affinity for α2 versus α1 receptor complexes [2]	Analgesic effect (healthy volunteers)	Preference α2- versus α1GABAARs at low concentrations [4]	Efficacy of potentiation of α2- versus α1GABAARs at saturating concentrations [4]	Relative potentiation of subtypes at sub-saturating concentrations [4]	Direct activation of GABAAR currents [5]	ED50 antihyperalgesia [6] [mg/kg]	other results
CN1C(=O)CC(=O)N(c2ccccc2)c2cc(Cl)ccc21 [CBZ, clobazam]	about 300%	higher binding affinity for α2 versus α1 receptor complexes	weak analgesic effects	about similar effects on α2- and α1GABAARs	potentiated both GABAAR subtypes with similar efficacy	α1GABAAR mediated currents were potentiated similarly to α2-, α3- and α5-GABAARs mediated currents	did not directly activate GABAAR currents	–	Half-life in human [1]: 23 to 24 h; Potentiation of the other three α1-, α2-, and α5-GABAARs subtypes [3]: about 150%
CN1C(=O)CN=C(c2ccccc2)c2cc(Cl)ccc21 [DZP, diazepam]	237%	–	–	favored α1GABAARs	potentiated both GABAAR subtypes with similar efficacy	α1GABAAR mediated currents were potentiated more strongly than α2-, α3- and α5-GABAARs mediated currents	did not directly activate GABAAR currents	3.4 ± 1.3	α2GABAAR occupancy at which significant analgesia (>50% maximum possible effect) is achieved (α2GABAAR): about 70%; ED50 sedation [7]: 0.59 ± 0.08 mg/kg
O=C1CC(=O)N(c2ccccc2)c2cc(Cl)ccc2N1 [NDMC, 8-Chloro-1-phenyl-1H-1,5-benzodiazepine-2,4(3H,5H)-dione]	245%	a difference which is shared	–	preferred α2GABAARs across the entire concentration range tested	clearly favored α2-over α1GABAARs	highest for α2- followed by α3-, and lowest for α5- and α1-GABAARs mediated currents	did not directly activate GABAAR currents	3.1 ± 0.9	Efficacy at α2β3γ2GABAARs compared with DZP (α2β3γ2 GABAAR): even stronger efficacy at α2β3γ2GABAARs than the full agonist DZP; Potentiation of currents (% increase upon application) (α2β3γ2 GABAAR; α2GABAARs, GABA at EC10): 253%; Potentiation of currents (% increase upon application) (α1β2γ2 GABAAR): 143%; Potentiation of currents (% increase upon application) (α5β2γ2 GABAAR): 148%; Reversal of thermal hypersensitivity (paw withdrawal latency) ([8]; C57BL/6J mice, injured paw, NDMC 3, 10, 30 mg/kg): dose-dependently reversed this hypersensitivity; Antihyperalgesic effect, heat hyperalgesia [8, 11]: completely lost its antihyperalgesic effects; half-life ([9]; C57BL/6, mouse, plasma, range over single oral doses of 3, 10 and 30 mg kg^−1): 4.6 to 5.6 h; Average maximum plasma concentration ([9]; single oral dose 3 mg kg^−1): 1.2 µg/mL; Average maximum plasma concentration ([9]; single oral dose 10 mg kg^−1): 1.9 µg/mL; Average maximum plasma concentration ([9]; single oral dose 30 mg kg^−1): 3.3 µg/mL; Time to average maximum plasma concentrations [9, 12]: about 2.5 hrs; Time to maximal blood levels [9, 12]: 2 to 3 h; α2/α1GABAAR selectivity ratio ([4]; compared among DZP, CBZ and NDMC): most favorable α2/α1GABAAR selectivity ratio; Effect on locomotor activity (sedation) (mice, motor activity; 129X1/SvJ mice, all tested doses): did not cause any measurable reduction in locomotor activity; Effect on motor activity (sedation) (mice, motor activity; C57BL/6J mice, 3, 10, 30 mg/kg, recorded for 6 h): did not impair motor activity at any dose; Reversal of mechanical hypersensitivity (paw withdrawal threshold) ([10]; C57BL/6J mice, injured paw, NDMC 3, 10, 30 mg/kg, compared to vehicle): dose-dependently reversed this hypersensitivity; Antihyperalgesic effect, mechanical hyperalgesia [10, 11]: completely lost its antihyperalgesic effects
O=C1CN=C(c2ccccc2Cl)c2cc([N+](=O)[O-])ccc2N1 [clonazepam]	–	no distinction of affinity between α2 and α1 receptor complexes	weak analgesic effects	–	–	–	–	–	–
